Experimental data from US11365410B2, “Production and monitoring of metabolites in cells” (President and Fellows of Harvard College, priority 2015, dated 2022).

What was measured:
[1] = molecular target: T1, TtgR (Pseudomonas putida), regulator sequence SEQ ID NO: 14 (Pseudomonas putida, UniProt Q9AIU0); assay type: cell-based
T1 construct: expressed in transfected cells; host or cells: E. coli DH5alpha transformed with pJKR-H (high copy) or pJKR-L (low copy) plasmid
Description: (§1) DH5α cells transformed with pJKR plasmids and maintained with carbenicillin were used in the induction assays. For each induction evaluation experiment, the cells were grown overnight to saturation before being diluted 1:100 into fresh LB media and incubated at 200 RPM and 37° C. After four hours, 150 μl of the log-phase cells were transferred to 96-well plates and stock inducer was added to achieve the desired range of induction concentrations. Three separate wells were inoculated and independently supplemented with the appropriate amount of inducing chemical for each level of induction. Measurements were made on the same Biotek (Winooksi, Vt.) HT plate reader using the same settings: excitation 485/20, emission 528/20, 37° C. and fast shaking. Fluorescence and absorbance were measured every 10 minutes for 15 hours. Fluorescence was measured in arbitrary units (AFU) while optical density was determined by absorbance (OD). Normalized fluorescence was determined by dividing fluorescence by optical density for a given measurement. Five independent wells containing control strains, transformed with pUC19, were included to provide a measurement of background autofluorescence.

[2] = system: muconate biosensor benM in BL21 cells; assay: Real-time muconate monitoring from pathway intermediates with benM biosensor; assay type: cell-based, E. coli; conditions: strain with muconate biosynthesis pathway
Text: A cell was genetically modified to include the muconate biosensor benM regulating production of a fluorescent molecule, and a LysR-type transcriptional regulator derived from Acinetobacter baylyi (see Craven, S. H., Ezezika, O. C., Haddad, S., Hall, R. A., Momany, C. and Neidle, E. L. (2009) Inducer responses of BenM, a LysR-type transcriptional regulator from Acinetobacter baylyi ADP1. Mol Microbiol, 72, 881-894 hereby incorporated by reference in its entirety). This setup is analogous to the previously described muconate artificial selection in which benM controls expression of an antibiotic resistance gene (see Raman, S., Rogers, J. K., Taylor, N. D. and Church, G. M. (2014) Evolution-guided optimization of biosynthetic pathways. Proceedings of the National Academy of Sciences of the United States of America, 111, 17803-17808 hereby incorporated by reference in its entirety. In order to achieve various muconate production rates for real-time observation, muconate was produced from a range of precursor molecules by implementing the biosynthetic pathway developed by Draths and Frost (see Niu, W., Draths, K. M. and Frost, J. W. (2002) Benzene-free synthesis of adipic acid. Biotechnology progress, 18, 201-211 and Draths, K. M. and Frost, J. W. (1994) Environmentally Compatible Synthesis of Adipic Acid from D-Glucose. […]
Muconate production monitoring was carried out in BL21 cells doubly transformed with pJKR-H-benM and the muconate production plasmid. […] After four hours, 150 μl of the log-phase cells were transferred to 96-well plates and monitored in the plate reader. After one hour, the specified concentration of pathway intermediate was added in triplicate and fluorescence monitoring was resumed. […] The quantity of muconate in the supernatant was determined by HPLC. […]

TtgR biosensor = TtgR biosensor induction with phenol and related compounds; assay type: cell-based, E. coli; conditions: 0.1% phenol, 0.1% catechol, up to 0.4% benzene; fluorescence after 90 minutes
Description: All experiments were carried out in triplicate.
as §1

[3] = system: inducible promoter driving sfGFP in DH5α cells; assay: Hill-function fit of maximum GFP expression rate to inducer concentration; assay type: cell-based, E. coli
Description: The GFP expression rate was calculated at each time-point with the formula ΔGFP/OD. Scipy was used to perform a non-linear least-squares fit of the maximum GFP expression rate to the corresponding inducer concentration using the Hill function
Vmax is the maximum rate of GFP expression, Vmin is basal rate of GFP expression, I is the concentration of inducer, h is the hill coefficient and KL is the lumped half-maximal parameter described in Results. The variance of each parameter was determined from the least-squares covariance matrix.
A model of gene activation is applied as described herein to relate promoter activity to inducer concentration. Promoter activity is defined as the time derivative of fluorescence corrected for cell growth. […] Gene expression rates were fit to a Hill function adapted to account for both the maximum velocity of gene expression and the basal expression of the uninduced cells.

How did the “Activation of TtgR by cumate” value ([1]; cross-reactivity panel, 20 μM) turn out when `CC(C)c1ccc(C(=O)O)cc1` [Cumate, cumate] was run?
Its value is “not activated”.

`O=C(O)C1=CC(=O)[C@@H](O)[C@H](O)C1` [DHS, 3-dehydroshikimate] was tested. Which “fluorescence response of muconate biosensor” value [2] did it give?
The value was “rapid fluorescence response”.

Which “Activation of TtgR sensor” value ([1]; 0.1%, 90 min) does the source give for `Oc1ccccc1` [Phenol, phenol] here?
The value was “only phenol activated the sensor”.

Which results are given for `Oc1ccccc1O` [catechol]?
fluorescent response of TtgR biosensor (TtgR biosensor): did not activate the sensor; fluorescence response of muconate biosensor [2]: rapid fluorescence response

`O=C(O)c1ccc(O)c(O)c1` [protocatechuate] was tested. Which “fluorescence response of muconate biosensor” value [2] did it give?
The value was “rapid fluorescence response”.

What does the source list for AraC?
Basal Expression Velocity ([3]; High copy number plasmid): 20 ± 50 s⁻¹; Basal Expression Velocity ([3]; Low copy number plasmid): 40 ± 30 s⁻¹
